One series has as its system siRNA. The series can be described thus: SPR analysis of peptide binding to immobilized siRNA. Conditions: peptide with sHGP-9r (19:1 molar ratios), 10, 5, 2.5 and 1.25 μM, biotinylated siRNA on streptavidin chip, 25°C. Here is the method: The dynamics of PwSN formation were studied by SPR analysis (SR7500 DC, Reichert Inc, Depew, NY). 5′-Biotinylated siRNAs were diluted to 1 μM in HBS buffer (10 mM HEPES, pH 7.4, 150 mM NaCl, 3.4 mM EDTA, 0.005% Tween20), heated at 85°C for 10 min, cooled to room temperature, diluted to 20 fmol/μl in running buffer (10 mM HEPES, pH 7.4, 150 mM NaCl, 62.5 μg/ml bovine serum albumin, 125 μg/ml tRNA, 1 mM dithiothreitol, 0.05% Tween20), and injected at 10 μl/min. 50–100 response units of siRNA were coated per flow channel on streptavidin-coated sensor chip (NeutrAvidin Surface chip; Reichert Analytical Instrument, Depew, NY). 2-min injections of four different peptide concentrations (10, 5, 2.5, and 1.25 μ M) were injected over the sensor chip surface at 25°C with a flow rate of 25 μl/min. The surface was regenerated by removing bound peptides with a 180-s 2 M NaCl injection and 20-s 0.1% SDS followed by a binding buffer injection to rinse the needle. Sensorgrams were fit to kinetic titration model using Clamp program. To monitor dissociation between peptide and siRNA upon heparan sulfate competition, The 2.5 μM of peptides were injected to reach saturated binding and different concentrations of heparan sulfate were injected.
(Surface plasmon resonance follows binding to a sensor surface in real time, without labels.)
Consider “CRKRLDRNCggRARRARRAR [I4R-9r(A3), I4R-9r variant with three alanine substitutions]”, for which the “binding affinity for siRNA (in words)” value is on record as “lowest affinity”.

As for “CRKRLDRNCggRRARRRRRR [I4R-9r(A1*), I4R-9r variant with one arginine of 9r replaced by alanine, other position]”, the “binding affinity for siRNA (in words)” value was “moderate affinity”.

In the case of “CRKRLDRNC-GG-RRRRRRRRR [I4R-9r, interleukin-4 receptor-targeting peptide (I4R) connected by GG to nine D-arginine peptide]”, the “binding affinity for siRNA (in words)” value is “strongest binding affinity”.

On to “CRKRLDRNCggRRARRRARR [I4R-9r(A2), I4R-9r variant with two alanine substitutions]”, for which the “binding affinity for siRNA (in words)” value is given as “lowest affinity”.

Turning to “CRKRLDRNCggRRRRARRRR [I4R-9r(A1), I4R-9r variant with one arginine of 9r replaced by alanine]”, the “binding affinity for siRNA (in words)” value is “moderate affinity”.

In the next series the test system is siRNA. The series can be described thus: Gel retardation assay of siRNA encapsulation. It is filed as physicochemical. Conditions: 2% agarose, 100 pmol siRNA mixed with peptide 30 min at room temperature, ratios 1:5 to 1:50. The procedure: Peptide-woven siRNA nanocomplexes (PwSN) were prepared by mixing siRNA in diethylpyrocarbonate (DEPC)-treated water (100 pmoles) with peptide carrier with a molar ratio of 1:5 to 1:50 (siRNA: peptide) for 30 min at room temperature. The samples were subjected on 2% agarose gels electrophoresis to examine siRNA encapsulation. To test the stability of the siRNA nanocomplex against RNase A, the nanocomplex containing 100 pmol of siRNA mixed with 20-fold molar excess of peptides, then was incubated in the presence or absence of RNase A (0.2 μg) for up to 6 h at 37°C. After incubation, the RNase A activity was inhibited by addition of 2% sodium dodecyl sulfate (SDS) and subjected to agarose gel electrophoresis.
Consider “CRKRLDRNC-GG-RRRRRRRRR [I4R-9r, interleukin-4 receptor-targeting peptide (I4R) connected by GG to nine D-arginine peptide]”, for which the “siRNA:peptide molar ratios at which siRNA is encapsulated” value was “between 1:20 and 1:50”.

These data come from article PMC4338040, “Design of a Multicomponent Peptide-Woven Nanocomplex for Delivery of siRNA” (PLoS ONE, 2015).
